The text below walks through data of publication PMC2361662 (British Journal of Cancer, 2005).

Test [1] relates to EGFRvIII-expressing cells. On the set-up: method as in Montgomery, 2002. The settings on record: ref Montgomery, 2002; cited from earlier work.
Test [2] has as its system LN229/EGFR cells. On the set-up: method as in Li et al (2003). The settings on record: ref Li et al (2003); cited from earlier work.
Test [3] deals with ERK. The experiment in a line: ERK phosphorylation, immunoblot. The class given is cell-based. Here is the method:
(§1) For determination of phosphorylated proteins, 5 μg whole cell lysate from serum-starved cells was resolved by SDS–PAGE and electroblotted onto nitrocellulose membranes. After transfer and blocking in 5% nonfat milk, primary antibody staining was carried out by incubation overnight at 4°C, and secondary antibody staining was for 1 h at room temperature. The chemiluminescence detection method (ECL) was used for all Western blot experiments.
(§2) Extracellular regulated kinase-1 and -2 (ERK-2), phospholipase C γ (PLC-γ), protein kinase B (AKT) and the signal transducer and activator of transcription 3 (STAT3) are all essential downstream targets of EGFR and mediate many of its oncogenic effects.
(§3) Figure 3 (A) Phosphorylation of key signalling molecules upon EGF (10 nM for 10 min) stimulation in the four cell lines.
(In general: Immunoblotting shows a protein as a band on a membrane.)

Test [4] has as its system STAT3. The experiment in a line: STAT3 phosphorylation, immunoblot. The class given is cell-based. The following applies: NR6M cells (EGFRvIII-expressing). On the procedure: as §1, §2, §3

With `COc1cc2ncnc(Nc3cccc(Cl)c3)c2cc1OC` [AG1478], the “Concentration that stimulated colony formation” value in test [1] was 0.1 µM. Take `COc1cc2ncnc(Nc3cccc(Br)c3)c2cc1OC` [PD153035]: the “Concentration that stimulated proliferation” value in test [2] was 0.05 µM.

Consider `COc1cc2ncnc(Nc3ccc(F)c(Cl)c3)c2cc1OCCCN1CCOCC1` [gefitinib], for which the “Effect on ERK phosphorylation” value in test [3] (NR6M cells, 0.1 μM gefitinib, after 48 and 72 h) is recorded as “increased”. Further, the “Response of ERK phosphorylations to gefitinib” value in test [3] (NR6W cells, up to the highest concentrations (2 μM)) was “unresponsive”. Further, the “Effect on background level of STAT3 phosphorylation” value in test [4] is recorded as “no effect”.
